Patent US9133125B2, “Morphan and morphinan analogues, and methods of use” (priority 2013, dated 2015)

Tested on: Male Sprague-Dawley rats
Experiment: Thermal pain assay (rodent hot plate model)
Format: in vivo
Conditions: rat, dose of 10 mg/kg, subcutaneous

## Cl.NC(=O)c1ccc2c(c1O)[C@]13CCN(CC4CCC4)[C@H](C2)[C@]1(O)CC[C@@H](O)C3 [Compound D, (4bR,6R,8aS,9R)-11-(cyclobutylmethyl)-4,6,8a-trihydroxy-6,7,8,8a,9,10-hexahydro-5H-9,4b-(epiminoethano)phenanthrene-3-carboxamide]
  antinociceptive effect, hot plate: no antinociceptive effect

## Cl.NC(=O)c1ccc2c(c1O)[C@]13CCN(CC4CCC4)[C@H](C2)[C@]1(O)CC[C@H](O)C3 [Compound C, (4bR,6S,8aS,9R)-11-(cyclobutylmethyl)-4,6,8a-trihydroxy-6,7,8,8a,9,10-hexahydro-5H-9,4b-(epiminoethano)phenanthrene-3-carboxamide]
  antinociceptive effect, hot plate: no antinociceptive effect
